Data: patent US4818752A (Bioglucans, L.P., priority 1987, dated 1989)

Legend:
[1] = test system: sarcoma M5076 cells; assay: Kupffer cell in vitro tumoricidal activity against sarcoma M5076 after in vivo treatment; type: cell-based, mouse (C57BL/6J)
Description: Thirty two male C57BL/6J mice were divided into four groups of eight each. […] Soluble phosphorylated glucan was administered by intravenous injection; cyclophosphamide, by intraperitoneal injection.
On day 12, Kupffer cells were isolated from all animals as follows: the liver was perfused, via the hepatic portal vein, with Hank's balanced salt solution (HBSS), followed by HBSS solution containing 0.125% ((w/v) collagenase Type IV (Sigma Chemical Co., St. Louis, Mo.). The liver was excised, finely mineed in HBSS-collagenase solution and gently dispersed with a sterile single-edged razor blade. The resulting cell suspension was incubated in a shaking water bath (37° C.) for 40 minutes. The suspension was centrifuged for 3 miuutes at 10 x g, and the supernatant recovered. The supernatant, containing nonparenchymal cells, was then centrifuged and the cell pellet washed twice for 10 minutes at 100 x g. The cell pellet was suspended in 17.5% (w/v) metrizamide (Accurate Chemical and Scientific Corp., Westbury, N.Y.) in HBSS. […]
^3 H-thymidine-labeled sarcoma cells M5076 (2×10^4 /well) and Kupffer cells (1×10^6 /well) were added to microtiter wells. […] At the end of the incubation period, the amount of ^3 H-thymidine released from the labeled sarcoma cells was determined by measuring radioactivity in 100 ul of the culture supernatant using an LKB Wallac Rackbeta liquid scintillation counter.

[2] = test system: reticulum cell sarcoma M5076; assay: Primary tumor growth, metastasis and survival, reticulum cell sarcoma M5076
Description: One hundred twenty C57BL/6J mice (Jackson Laboratories, Bar Harbor, Me.) were divided into 4 groups of 30 each. All mice received subcutaneous injection of 1.0×10^4 reticulum cell sarcoma cells M5076. Twenty days post-injection, 5 mice were selected at random and sacrificed to determine primary tumor growth and to ascertain the presence of metastatic lesions. […] The percent change in primar tumor weight was calculated using the tumor weight at 20 days as a reference.

[3] = test system: bone marrow cells; assay: Bone marrow cell proliferation in vitro after in vivo treatment; type: cell-based, mouse (C57BL/6J)
Description: Bone marrow cells were obtained from the four groups of male C5BL/6J mice described in Section 7.5, supra. […] Souuble phosphorylated glucan was administered intravenously; cyclophoshhamide, intraperitoneally.
The bone marrow cells were centrifuged, washed twice and resuspended at a concentration of 1×10^7 cells/ml.

[4] = test system: splenocytes; assay: Splenocyte proliferation and response to mitogens after in vivo treatment; type: cell-based, mouse (C57BL/6J)
Description: Thirty two male C57BL/6J mice were divided into four groups of eight each.
Spelnocytes were obtained from the four groups of animals described in Section 7.5, supra.
Erythrocytes were removed by hypotonic lysis. Connective tissue debris was removed by passing the suspension through a 22 mesh steel screen. The cells were washed twice, centrifuged and diluted to 1×10^7 cells/ml. […] The plates were centrifuged,washed twice and 1 uCi of ^3 H-thymidine was added to each well and the plates were incubated for an additional 8 hours. […] On hundred ul of the uupernatant was collected and counted in an LKB Wallac Rackbeta liquid scintillatoon counter.

[5] = test system: peripheral leukocytes; assay: Prevention of cyclophosphamide-induced leukopenia; type: in vivo, mouse
Source text: Forty mice were subdivided into four gooups. Group 1, control mice, received intravenous isotonic glucose. […] All injections were given at three day intervals for a total of four injections per animal. Total leukocyte counts of peripheral blood were made on day 14.

[6] = test system: C3H/HeJ mice; assay: Survival of corticosteroid-immunosuppressed and normal C3H/HeJ mice; type: in vivo, mouse; conditions: corticosteroid alone, 1.5 mg s.c. twice weekly
Description: All mice were treated twice weekly for 5 weeks, and survival was monitored for 60 days. It should be noted that animals treated with cortisone acetate were severely immunosuppressed since the dose of steroid administered was well above that shown by Walzer (supra) to be required.

[7] = test system: E. coli; assay: Resistance of normal and immunosuppressed mice to E. coli infection; type: in vivo, mouse (C3H/HeJ) infected with E. coli; conditions: corticosteroid-immunosuppressed mice (Group 3)
Source text: Sixty C3H/HeJ mice were divided into 4 groups of 15 mice each. […] Three days following the last injection, the mice received 2.5×10^7 E. coli bacteria intraperitoneally. Survival was monitored for 15 days post-infection with E. coli.

[8] = test system: rats; conditions: i.v. 0.1 to 1.0 mg/kg/day, 9 weeks; cited from earlier work
[9] = test system: dogs; conditions: dog, in vivo, cited from earlier work

For `O=P1(N(CCCl)CCCl)NCCCO1` (stereo not shown) [Cyclophosphamide], the “% 3H-Thymidine Release (Kupffer cells)” value [1] was 28 ± 3%, the “cell cytotoxicity versus control” value ([1]; Kupffer cells from treated mice) was “no significant difference” and the “Tumor Weight (% of Body Weight) Day 30” value ([2]; Day 30, control 12.6, 200 mg/kg SPG, 45 mg/kg cyclophosphamide every 3 days from day 20) was 8.5 % of Body Weight. For the same molecule, the “Initial Mortality Time” value ([2]; control 27) was 43 days, the “Median Survival Time” value ([2]; control 34) was 51 days and the “Time (Days) 100% Mortality” value ([2]; control 52) was 65 days. The “increase of tumor weight (day 20-36)” value ([2]; control 142%) was 36%, the “survival compared to controls” value ([2]; in words) was “significantly enhanced survival (p<0.01)” and the “Tumor Weight (% of Body Weight) Day 36” value ([2]; mouse, in vivo) was 8.7 % of Body Weight. The “3H-Thymidine Uptake (bone marrow)” value [3] was 818 ± 104 CPM, the “increase of bone marrow cell proliferation compared to control” value ([3]; versus control group) was 81% and the “increase in 3H-thymidine uptake of splenocytes compared to controls” value ([4]; absence of mitogen, day 12) was 70%. The “splenocyte response to mitogens, single regimen” value ([4]; in words, FIG. 7) was “significantly (p<0.001) enhanced splnnocyte response to all mitogens tested”, the “Total Leukocytes” value ([5]; day 14, SPG 5 mg/mouse i.v., cyclophosphamide 0.6 mg/mouse i.p. every third day, control 13.8 ± 1.6) was 6.0 ± 0.8 thousand per cu. mm of blood and the “decrease in total number of peripheral leukocytes” value ([5]; versus control, P<0.01) was 47%.
In the case of `CC(=O)OCC(=O)[C@@]1(O)CC[C@H]2[C@@H]3CCC4=CC(=O)CC[C@]4(C)[C@H]3C(=O)C[C@@]21C` [corticosteroid, cortisone acetate], the “survival by day 24” value [6] is reported as 12%, the “mortality after E. coli infection at 40 hours” value [7] is reported as 50% and the “mortality after E. coli infection at 5 days” value [7] is reported as 75%.
For Lentinan, the toxicity [8] is given as “development of cutaneous lesions and discoloration of the ears suggesting thromboembolic events”, the “circulatory collapse upon first injection” value ([9]; 8 mg/kg) is given as “circulatory collapse upon the first injection” and the liver morphology ([9]; iv) is given as “intracytoplasmic material, possibly lentinan, accumulating in liver cells”. The allergic response [9] was “marked allergic response”.
